Laboratory results as given in article PMC12442639, “A Two‐Protein Chemoreceptor Complex Regulates Oxygen Thresholds in Bacterial Magneto‐Aerotaxis” (Advanced Science, 2025).

Target: T1, CetB2 (His6-CetB2) (Magnetospirillum gryphiswaldense, UniProt A0ACM8ULG3)
T1 construct: N-terminal His6 tag (pET28a), expressed in E. coli Rosetta(DE3) pLysSRARE, Ni-agarose purified; predicted FAD-site residues His54, Asn55, Arg58, Phe67, Trp71, Asn86, Val100, Arg117
Assay: LC-MS of purified protein; UV/vis spectroscopy; cyclic voltammetry
Format: binding
Settings: non-covalently bound, co-purified FAD; UV/vis in 50 mM Na-phosphate pH 8, 300 mM NaCl, 5% glycerol

T1 sequence (A0ACM8ULG3 entry or part of it): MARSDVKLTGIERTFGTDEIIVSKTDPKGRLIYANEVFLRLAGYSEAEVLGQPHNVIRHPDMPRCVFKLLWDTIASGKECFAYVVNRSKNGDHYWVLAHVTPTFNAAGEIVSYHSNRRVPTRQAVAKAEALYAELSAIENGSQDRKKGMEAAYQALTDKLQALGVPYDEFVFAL

## Cc1cc2nc3c(=O)[nH]c(=O)nc-3n(C[C@H](O)[C@H](O)[C@H](O)COP(=O)(O)OP(=O)(O)OC[C@H]3O[C@@H](n4cnc5c(N)ncnc54)[C@H](O)[C@@H]3O)c2cc1C [FAD, flavin adenine dinucleotide]
  LC-MS of purified protein; UV/vis spectroscopy; cyclic voltammetry: indicates that FAD was non‐covalently bound to the protein and released during chromatographic separation
